Data as given in paper PMC5715060, “Key site residues of pheromone-binding protein 1 involved in interacting with sex pheromone components of Helicoverpa armigera” (Scientific Reports, 2017).

Tests used:
[1] = molecular target: HarmPBP1 (wild-type) (Helicoverpa armigera, UniProt F5ANH9); assay: Fluorescence binding assay (1-NPN probe), wild-type HarmPBP1; conditions: for Ki / IC50: wild-type HarmPBP1, pH 7.4; for Ki: calculated from IC50, Ki = [IC50]/(1 + [1-NPN]/K1-NPN), read-out: Ki, dissociation constant; for IC50: mean ± S.E.M, three replicates, read-out: IC50, ligand concentration displacing 50% of the fluorescence intensity of the protein/1-NPN complex
Description: (§1) Fluorescence binding assays were performed in a reaction system at pH7.4. Probed by 1-NPN, the maximum emission wavelengths of F12A, F36A, W37A, F119A and Q64A were in the range of 390–410 nm, which are similar to that of HarmPBP1 (400 nm).
(§2) Fluorescence binding assays were conducted on the F-380 fluorescence spectrophotometer (Gangdong Sci. & Tech, Tianjin, China) in a 1-cm light path quartz cuvette to further investigate the binding abilities of the principal pheromone components of H. armigera, Z11-16:Ald and Z9-16:Ald, to mutants. The fluorescent probe N-phenyl- 1-naphthylamine (1-NPN) was dissolved in methanol to yield a 1 mM stock solution. Both of the excitation and emission slit widths were 10 nm. Fluorescence of 1-NPN was excited at 337 nm and the emission spectra were recorded between 390 and 490 nm. Z11-16:Ald and Z9-16:Ald were purchased from Sigma-Aldrich (purity >98%). All chemicals used in this study were dissolved in HPLC purity grade methanol. Fluorescence measurements were performed according to Gu et al.[11]. Dissociation constants of the competitors were calculated from the corresponding IC50 (the ligand concentration displacing 50% of the NPN fluorescence intensity of the HarmPBP1/1-NPN complex) values, using the equation: Ki = [IC50]/(1 + [1-NPN]/K1-NPN), where [1-NPN] is the free concentration of 1-NPN and K1-NPN is the dissociation constant of the HarmPBP1/1-NPN complex.

[2] = molecular target: HarmPBP1 mutant F12A (Helicoverpa armigera, UniProt F5ANH9, F39A); assay: Fluorescence binding assay (1-NPN probe), mutant F12A
Description: as §1
(§3) Four mutations of HarmPBP1, F12A (mutating phenylalanine to alanine at position 12), F36A (mutating phenylalanine to alanine at position 36), W37A (mutating tryptophan to alanine at position 37) and F119A (mutating phenylalanine to alanine at position 119) were generated by using the Quick-change lightning site-directed mutagenesis kit (Stratagene, USA), and a random mutation, Q64A (mutating glutanine to alanine at position 64) was set as control. The pGEM-T Easy/HarmPBP1 construct was used as template, and the specific primers designed for mutations were also listed in Table 1. The PCR conditions were 95 °C for 30 s, followed by 18 cycles of 95 °C for 30 s, 60 °C for 1 min, 68 °C for 4 min. Valid mutants were sub-cloned into pGEM-T easy vector (Promega, USA). Same expression vector and competent cells were used as the HarmPBP1. The recombinant mutant protein prokaryotic expression and purification were conducted as mentioned above.
as §2

[3] = molecular target: HarmPBP1 mutant F36A (Helicoverpa armigera, UniProt F5ANH9, F63A); assay: Fluorescence binding assay (1-NPN probe), mutant F36A
Description: as §1, §3, §2

[4] = molecular target: HarmPBP1 mutant W37A (Helicoverpa armigera, UniProt F5ANH9, W64A); assay: Fluorescence binding assay (1-NPN probe), mutant W37A
Description: as §1, §3, §2

[5] = molecular target: HarmPBP1 mutant F119A (Helicoverpa armigera, UniProt F5ANH9, F146A); assay: Fluorescence binding assay (1-NPN probe), mutant F119A
Description: as §1, §3, §2

[6] = molecular target: HarmPBP1 mutant Q64A (Helicoverpa armigera, UniProt F5ANH9, Q91A); assay: Fluorescence binding assay (1-NPN probe), control mutant Q64A
Description: as §1, §3, §2

HarmPBP1 mutant F12A, sequence (F5ANH9 entry or part of it F39A): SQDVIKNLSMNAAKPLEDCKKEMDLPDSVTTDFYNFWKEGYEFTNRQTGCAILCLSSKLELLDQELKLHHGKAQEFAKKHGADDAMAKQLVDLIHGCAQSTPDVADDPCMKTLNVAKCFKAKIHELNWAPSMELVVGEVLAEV
HarmPBP1 mutant F36A, sequence (F5ANH9 entry or part of it F63A): as the sequence (F5ANH9 entry or part of it F39A) above, with A12F, F36A counted along it
HarmPBP1 mutant Q64A, sequence (F5ANH9 entry or part of it Q91A): as the sequence (F5ANH9 entry or part of it F39A) above, with A12F, Q64A counted along it
HarmPBP1 mutant F119A, sequence (F5ANH9 entry or part of it F146A): as the sequence (F5ANH9 entry or part of it F39A) above, with A12F, F119A counted along it
HarmPBP1 mutant W37A, sequence (F5ANH9 entry or part of it W64A): as the sequence (F5ANH9 entry or part of it F39A) above, with A12F, W37A counted along it
HarmPBP1 (wild-type), sequence (F5ANH9 entry or part of it): as the sequence (F5ANH9 entry or part of it F39A) above, with A12F counted along it

Row | Structure (SMILES) | Kd [1] [nM] | Kd [2] [nM] | Kd [3] [nM] | Kd [4] [nM] | Kd [5] [nM] | Kd [6] [nM] | Ki [1] [nM] | IC50 [1] [nM] | IC50 [2] [nM] | Ki [2] [nM] | IC50 [3] [nM] | Ki [3] [nM] | IC50 [4] [nM] | Ki [4] [nM] | IC50 [5] [nM] | Ki [5] [nM] | IC50 [6] [nM] | Ki [6] [nM]
1 | c1ccc(Nc2cccc3ccccc23)cc1 [1-NPN, N-phenyl-1-naphthylamine] | 1790 ± 140 | 2100 ± 170 | 4050 ± 690 | 1870 ± 180 | 1960 ± 160 | 2390 ± 190 | – | – | – | – | – | – | – | – | – | – | – | –
2 | CCCCCC/C=C\CCCCCCCC=O [Z9-16:Ald, (Z)-9-hexadecenal] | – | – | – | – | – | – | 560 ± 50 | 870 ± 80 | 4630 ± 270 | 3060 ± 220 | 980 ± 150 | 720 ± 110 | 2220 ± 190 | 1490 ± 130 | 6910 ± 490 | 4610 ± 330 | 840 ± 60 | 580 ± 30
3 | CCCC/C=C\CCCCCCCCCC=O [Z11-16:Ald, (Z)-11-hexadecenal] | – | – | – | – | – | – | 670 ± 50 | 1030 ± 80 | 4690 ± 330 | 3100 ± 130 | 1040 ± 60 | 760 ± 80 | 2910 ± 120 | 1950 ± 80 | 7660 ± 560 | 5110 ± 470 | 1120 ± 210 | 770 ± 130
